Experimental data as given in PMC8807572, “The zebrafish embryo as an in vivo model for screening nanoparticle-formulated lipophilic anti-tuberculosis compounds” (Disease Models & Mechanisms, 2022).
Values after ≈ are worked out from the molar mass of the structure shown. Values joined by “and” are separate entries in the source; they are usually repeats but may differ in a detail not shown here. Equal entries are not always repeated. Where two headings read alike, the source gives them in different places.

How the values were obtained:
VERO cells = tested on: VERO cells; set-up: method as in data not published; conditions: cytotoxicity in VERO cells; ref data not published; cited from earlier work
Mtb = tested on: Mtb; set-up: method as in data not published; conditions: in vitro, phenotypic HTS; ref data not published; cited from earlier work
extracellular Mm = assay: MIC90 resazurin microtiter assay against extracellular M. marinum; type: cell-based, Mycobacterium marinum
[1] = tested on: intracellular Mm in murine BMDMs; assay: Anti-mycobacterial efficacy in M. marinum-infected BMDMs (CFU plating); type: cell-based, Mycobacterium marinum; conditions: for IC90: Mycobacterium marinum

SMILES | CC50 (VERO cells) | MIC90 against Mtb (Mtb) | MIC90 (extracellular Mm; Mycobacterium marinum) | MIC90 (extracellular Mm; extracellular Mm, resazurin assay) | MIC90 (extracellular Mm; extracellular Mm, resazurin assay, read-out: MIC90) | IC90 ([1]; BMDM) | IC99 ([1]; intracellular M. marinum in BMDM, calculated from the macrophage infection assay data) | MIC90 (extracellular Mm; Mycobacterium marinum, extracellular Mm, resazurin assay, read-out: MIC90) | IC99 [1] | IC90 ([1]; intracellular M. marinum in BMDM, calculated from the macrophage infection assay data, read-out: IC90)
COc1ccc2c(ccc3oc([N+](=O)[O-])cc32)c1 [C16, 7-methoxy-2-nitronaphtho[2,1-b]furan] | 0.3 µg/mL (≈ 1.23 µM) | < 8 µg/mL | 0.016 µg/mL and 0.07 µM | 0.016 µg/mL | 0.07 µM | 0.013 µg/mL and 60 nM | 0.03 µg/ml and 0.11 µM |  |  | 
CO[C@H]1/C=C/O[C@@]2(C)Oc3c(C)c(O)c4c(O)c(c(/C=N/N5CCN(C)CC5)c(O)c4c3C2=O)NC(=O)/C(C)=C\C=C\[C@H](C)[C@H](O)[C@@H](C)[C@@H](O)[C@@H](C)[C@H](OC(C)=O)[C@@H]1C [RIF, rifampicin] |  |  |  |  |  |  |  | 0.1 µg/mL and 0.12 µM | 1.97 µg/ml and 2.41 µM | 0.878 µg/mL and 1.07 µM
